One assay has as its target T1, KRAS G12D (Homo sapiens, UniProt P01116, G12D).
T1 construct: aa1-188 KRAS WT, HRAS WT, NRAS WT, or KRAS containing the G12D
Put plainly: HTRF nucleotide exchange assay, KRAS G12D. Conditions: HTRF nucleotide exchange assay (NEA), class symbols. It counts as biochemical.

The target in the next assay is T2, KRAS WT (Homo sapiens, UniProt P01116).
T2 construct: aa1-188 KRAS WT
Nature of the assay: HTRF nucleotide exchange assay, KRAS WT. It counts as biochemical. The settings on record: HTRF nucleotide exchange assay (NEA), class symbols. In general terms: TR-FRET usually uses a lanthanide donor and a delayed reading to cut background.

pIC50: −log10 of the molar value.

T1 sequence (P01116 1-188 isoform P01116-2 G12D): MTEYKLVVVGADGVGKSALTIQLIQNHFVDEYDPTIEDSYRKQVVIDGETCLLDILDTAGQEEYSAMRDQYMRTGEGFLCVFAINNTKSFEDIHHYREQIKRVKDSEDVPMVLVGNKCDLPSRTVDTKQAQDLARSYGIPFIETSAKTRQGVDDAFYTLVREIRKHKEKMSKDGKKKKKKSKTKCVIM
T2 sequence (P01116 1-188 isoform P01116-2): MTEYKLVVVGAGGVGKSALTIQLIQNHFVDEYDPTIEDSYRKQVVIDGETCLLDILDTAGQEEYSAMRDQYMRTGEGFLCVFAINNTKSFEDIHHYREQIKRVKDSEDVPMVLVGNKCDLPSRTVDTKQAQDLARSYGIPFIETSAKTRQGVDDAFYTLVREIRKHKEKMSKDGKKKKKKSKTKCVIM

For orientation: pIC50 means the IC50 on a negative log10 scale, so that one unit is a factor of ten. Read a low pIC50 as a large IC50. On to `CCc1c(F)ccc2cc(O)cc(-c3c(F)c4nc(OCC5(CN6CCCC6)CC5)nc(N5CCOCC(C)(O)C5)c4c4cn(C)nc34)c12` (stereo not shown) [Example 155, 4-[4-(8-ethyl-7-fluoro-3-hydroxy-1-naphthyl)-5-fluoro-2-methyl-7-[[1-(pyrrolidin-1-ylmethyl)cyclopropyl]methoxy]pyrazolo[4,3-f]quinazolin-9-yl]-6-methyl-1,4-oxazepan-6-ol], for which the pIC50 against KRAS G12D and at KRAS WT was no less than 8.00 throughout.
Turning to `CCc1c(F)ccc2cc(O)cc(-c3c(F)c4nc(OCC56CCCN5CCC6)nc(N5CCOCC(C)(O)C5)c4c4cn(C)nc34)c12` (stereo not shown) [Example 160, 4-[4-(8-ethyl-7-fluoro-3-hydroxy-1-naphthyl)-5-fluoro-7-(1,2,3,5,6,7-hexahydropyrrolizin-8-ylmethoxy)-2-methyl-pyrazolo[4,3-f]quinazolin-9-yl]-6-methyl-1,4-oxazepan-6-ol], the pIC50 against KRAS G12D and on KRAS WT was no less than 8.00 throughout.
Take `CCc1c(F)ccc2cc(O)cc(-c3c(F)c4nc(OCC5(CN6CCOCC6)CC5)nc(N5CCOCC(C)(O)C5)c4c4cn(C)nc34)c12` (stereo not shown) [Example 162, 4-[4-(8-ethyl-7-fluoro-3-hydroxy-1-naphthyl)-5-fluoro-2-methyl-7-[[1-(morpholinomethyl)cyclopropyl]methoxy]pyrazolo[4,3-f]quinazolin-9-yl]-6-methyl-1,4-oxazepan-6-ol]: the pIC50 against KRAS G12D and against KRAS WT was no less than 8.00 throughout.
Turning to `CCc1c(F)ccc2cc(O)cc(-c3c(F)c4nc(OCC5(CN6CCC7(CCOCC7)C6)CC5)nc(N5CCOCC(C)(O)C5)c4c4cn(C)nc34)c12` (stereo not shown) [Example 228, 4-[4-(8-ethyl-7-fluoro-3-hydroxy-1-naphthyl)-5-fluoro-2-methyl-7-[[1-(8-oxa-2-azaspiro[4.5]decan-2-ylmethyl)cyclopropyl]methoxy]pyrazolo[4,3-f]quinazolin-9-yl]-6-methyl-1,4-oxazepan-6-ol], the negative logarithm of the IC50 (pIC50) at KRAS G12D and at KRAS WT was no less than 8.00 throughout.
Turning to `CCc1c(F)ccc2cc(O)cc(-c3c(F)c4nc(OC[C@@H]5CCN5C)nc(N5CCOCC(C)(O)C5)c4c4cn(C)nc34)c12` (stereo partly drawn) [Example 158, 4-[4-(8-ethyl-7-fluoro-3-hydroxy-1-naphthyl)-5-fluoro-2-methyl-7-[[(2S)-1-methylazetidin-2-yl]methoxy]pyrazolo[4,3-f]quinazolin-9-yl]-6-methyl-1,4-oxazepan-6-ol], the pIC50 at KRAS G12D and at KRAS WT was no less than 8.00 throughout.
Regarding `CCc1c(F)ccc2cc(O)cc(-c3c(C)c4nc(OC[C@@]56CCCN5C[C@H](F)C6)nc(N5CCCOCC5)c4c4cn(C)nc34)c12` [Example 79, 4-[2,5-dimethyl-9-(1,4-oxazepan-4-yl)-7-[[(2R,8S)-2-fluoro-1,2,3,5,6,7-hexahydropyrrolizin-8-yl]methoxy]pyrazolo[4,3-f]quinazolin-4-yl]-5-ethyl-6-fluoro-naphthalen-2-ol], the pIC50 against KRAS G12D and against KRAS WT was no less than 8.00 each time.
On to `CCc1c(F)ccc2cc(O)cc(-c3cc4nc(OC[C@@]56CCCN5C[C@H](F)C6)nc(N5CCOC[C@@](C)(O)C5)c4c4cn(C)nc34)c12` [Example 40, (6S)-4-[4-(8-ethyl-7-fluoro-3-hydroxy-1-naphthyl)-2-methyl-7-[[(2R,8S)-2-fluoro-1,2,3,5,6,7-hexahydropyrrolizin-8-yl]methoxy]pyrazolo[4,3-f]quinazolin-9-yl]-6-methyl-1,4-oxazepan-6-ol], for which the pIC50 on KRAS G12D and at KRAS WT was no less than 8.00 in each case.
Turning to `CCc1c(F)ccc2cc(O)cc(-c3c(F)c4nc(OCCC5CN(C)CCO5)nc(N5CCOCC(C)(O)C5)c4c4cn(C)nc34)c12` (stereo not shown) [Example 224, 4-[4-(8-ethyl-7-fluoro-3-hydroxy-1-naphthyl)-5-fluoro-2-methyl-7-[2-(4-methylmorpholin-2-yl)ethoxy]pyrazolo[4,3-f]quinazolin-9-yl]-6-methyl-1,4-oxazepan-6-ol], the pIC50 on KRAS G12D is no less than 8.00; against KRAS WT, 7.00 to 8.00.
As to `C=Cc1c(F)ccc2cc(O)cc(-c3c(C)c4nc(OC[C@@]56CCCN5C[C@H](F)C6)nc(N5CCCn6nc(C(=O)N(C)C)cc6C5)c4c4cn(C)nc34)c12` [Example 98, 5-[4-(7-fluoro-3-hydroxy-8-vinyl-1-naphthyl)-2,5-dimethyl-7-[[(2R,8S)-2-fluoro-1,2,3,5,6,7-hexahydropyrrolizin-8-yl]methoxy]pyrazolo[4,3-f]quinazolin-9-yl]-N,N-dimethyl-4,6,7,8-tetrahydropyrazolo[1,5-a][1,4]diazepine-2-carboxamide], the negative logarithm of the IC50 (pIC50) at KRAS G12D and on KRAS WT was no less than 8.00 each time.
Take `C#Cc1c(F)ccc2cc(O)cc(-c3c(F)c4nc(OC[C@@]56CCCN5C[C@H](F)C6)nc(N5CCCn6nc(C(=O)N(C)C)cc6C5)c4c4cn(C)nc34)c12` [Example 93, 5-[4-(8-ethynyl-7-fluoro-3-hydroxy-1-naphthyl)-5-fluoro-2-methyl-7-[[(2R,8S)-2-fluoro-1,2,3,5,6,7-hexahydropyrrolizin-8-yl]methoxy]pyrazolo[4,3-f]quinazolin-9-yl]-N,N-dimethyl-4,6,7,8-tetrahydropyrazolo[1,5-a][1,4]diazepine-2-carboxamide]: the pIC50 at KRAS G12D and at KRAS WT was no less than 8.00 in each case.
Consider `CCNC(=O)c1cc2n(n1)CCCN(c1nc(OC[C@@]34CCCN3C[C@H](F)C4)nc3cc(-c4cc(O)cc5ccc(F)c(CC)c45)c4nn(C)cc4c13)C2` [Example 21, N-ethyl-5-[4-(8-ethyl-7-fluoro-3-hydroxy-1-naphthyl)-2-methyl-7-[[(2R,8S)-2-fluoro-1,2,3,5,6,7-hexahydropyrrolizin-8-yl]methoxy]pyrazolo[4,3-f]quinazolin-9-yl]-4,6,7,8-tetrahydropyrazolo[1,5-a][1,4]diazepine-2-carboxamide], for which the negative-log IC50 (pIC50) on KRAS G12D and against KRAS WT was no less than 8.00 in each case.
Regarding `C#Cc1c(F)ccc2cc(O)cc(-c3c(C)c4nc(OC[C@@]56CCCN5C[C@H](F)C6)nc(N5CCCn6nc(C(=O)N(C)C)cc6C5)c4c4cn(C)nc34)c12` [Example 97, 5-[4-(8-ethynyl-7-fluoro-3-hydroxy-1-naphthyl)-2,5-dimethyl-7-[[(2R,8S)-2-fluoro-1,2,3,5,6,7-hexahydropyrrolizin-8-yl]methoxy]pyrazolo[4,3-f]quinazolin-9-yl]-N,N-dimethyl-4,6,7,8-tetrahydropyrazolo[1,5-a][1,4]diazepine-2-carboxamide], the pIC50 against KRAS G12D and at KRAS WT was no less than 8.00 throughout.
In the case of `CCc1c(F)ccc2cc(Cl)cc(-c3cc4nc(OC[C@@]56CCCN5C[C@H](F)C6)nc(N5CCCn6nc(C(=O)N(C)C)cc6C5)c4c4cn(C)nc34)c12` [Example 104, 5-[4-(3-chloro-8-ethyl-7-fluoro-1-naphthyl)-2-methyl-7-[[(2R,8S)-2-fluoro-1,2,3,5,6,7-hexahydropyrrolizin-8-yl]methoxy]pyrazolo[4,3-f]quinazolin-9-yl]-N,N-dimethyl-4,6,7,8-tetrahydropyrazolo[1,5-a][1,4]diazepine-2-carboxamide], the pIC50 at KRAS G12D is 7.00 to 8.00; against KRAS WT, 5.00 to 7.00.
With `C#Cc1c(F)ccc2cc(O)cc(-c3cc4nc(OC[C@@]56CCCN5C[C@H](F)C6)nc(N5CCOCC(C)(O)C5)c4c4cn(C)nc34)c12` (stereo partly drawn) [Example 11, 4-[4-(8-ethynyl-7-fluoro-3-hydroxy-1-naphthyl)-2-methyl-7-[[(2R,8S)-2-fluoro-1,2,3,5,6,7-hexahydropyrrolizin-8-yl]methoxy]pyrazolo[4,3-f]quinazolin-9-yl]-6-methyl-1,4-oxazepan-6-ol], the pIC50 at KRAS G12D and at KRAS WT was no less than 8.00 throughout.

These data come from patent publication US20260347364A1, “PYRAZOLO[4,3-F]QUINAZOLINE DERIVATIVES AS MODULATORS OF G12D MUTANT KRAS USEFUL FOR THE TREATMENT OF CANCER” (JAZZ PHARMACEUTICALS IRELAND LTD., priority 2023, published 2026).
